Measured values from patent publication US20250084060A1, “PRMT5 INHIBITORS AND METHODS OF TREATMENT” (HANGZHOU UNOGEN BIOTECH, LTD., priority 2022, published 2025).

Tests used:
PRMT5 = PRMT5 (Homo sapiens (Human), UniProt O14744); test: PRMT5 Chemiluminescent Assay; format: biochemical; settings: PRMT5 chemiluminescent assay kit (BPS Bioscience), histone H4 peptide substrate, eight-point dose response
Description: The PRMT5 activity is measured by using “PRMT5 Chemiluminescent Assay Kit” from BPS Bioscience, Catalog Number 52002L as per the instructions of the manufacturer. Briefly, the PRMT5 enzyme is incubated with S-adenosylmethionine in a 96-well plate precoated with histone H4 peptide substrate. Next, a highly specific antibody that recognizes methylated R3 residue of Histone H4 is added followed by a horseradkish peroxidase-labeled (HRP-labeled) secondary antibody. Detection is done by the addition of the HRP substrate to produce chemiluminescence that can be measured quantitatively.
Compounds were serially diluted 3-fold and dosed from 10 uM down to 0 uM. Compounds were tested in duplicates to generate an eight-point dose response for the calculation of their IC50s.

Z-138 cells = test: Z138 Cell Proliferation Assay; format: cell-based; settings: Z-138 human mantle cell lymphoma cells, 72 hours, CTG readout
Description: Human Mantle Cell Lymphoma
Z-138 cells were plated in a 96-well plate in IMDM medium containing 10% Horse Serum and PenStrep at a density of 10,000 cells/well. The plates were incubated at 37° C. in a humidified, 5% CO2 incubator. The next day, serially diluted compounds were added in duplicates for 72 hours. Compounds were tested at 10, 2.5, 0.625, 0.156, 0.039, 0.010 0.002 and 0 uM final concentrations. After 72 hours of compound addition, […] of Promega's CTG assay reagent was added and incubated at room temperature for 10 minutes. Chemiluminescence was read using a GloMax Discover instrument.

Sequence of PRMT5 (O14744 2-637): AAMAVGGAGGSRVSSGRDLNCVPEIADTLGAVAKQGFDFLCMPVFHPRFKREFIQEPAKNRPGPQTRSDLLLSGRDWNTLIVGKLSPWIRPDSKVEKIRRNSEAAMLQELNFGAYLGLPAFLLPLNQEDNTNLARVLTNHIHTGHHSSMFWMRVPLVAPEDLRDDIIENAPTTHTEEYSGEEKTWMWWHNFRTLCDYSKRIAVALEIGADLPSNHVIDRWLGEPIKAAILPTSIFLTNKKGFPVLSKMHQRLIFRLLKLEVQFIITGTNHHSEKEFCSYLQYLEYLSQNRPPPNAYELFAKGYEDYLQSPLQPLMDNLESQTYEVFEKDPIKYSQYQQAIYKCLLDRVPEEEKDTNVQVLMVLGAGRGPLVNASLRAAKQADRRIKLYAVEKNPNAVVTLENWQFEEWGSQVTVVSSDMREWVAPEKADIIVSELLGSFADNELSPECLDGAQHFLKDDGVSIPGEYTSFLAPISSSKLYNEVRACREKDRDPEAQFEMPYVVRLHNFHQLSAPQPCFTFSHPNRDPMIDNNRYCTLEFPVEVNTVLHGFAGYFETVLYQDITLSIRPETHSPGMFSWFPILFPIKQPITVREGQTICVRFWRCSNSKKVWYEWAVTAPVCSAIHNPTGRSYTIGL
Sequence of PRMT5 (Q9BQA1 2-342 partner): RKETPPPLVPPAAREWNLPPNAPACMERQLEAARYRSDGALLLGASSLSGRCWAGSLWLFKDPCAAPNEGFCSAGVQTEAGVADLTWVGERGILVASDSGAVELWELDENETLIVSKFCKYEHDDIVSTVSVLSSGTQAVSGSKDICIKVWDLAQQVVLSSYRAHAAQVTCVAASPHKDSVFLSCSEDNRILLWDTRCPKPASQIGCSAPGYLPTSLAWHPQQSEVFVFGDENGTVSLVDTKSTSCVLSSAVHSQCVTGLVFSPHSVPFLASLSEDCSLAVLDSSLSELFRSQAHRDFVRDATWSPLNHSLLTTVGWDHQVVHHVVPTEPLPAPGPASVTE

Row | SMILES | IC50 Values (PRMT5) | IC50 (PRMT5) | IC50 (Z-138 cells)
1 | O=c1c2ccccc2n(CC2CC2)c(=O)n1C[C@H](O)CN1CCc2ccccc2C1 [Compound 74, 1-(cyclopropylmethyl)-3-[(2R)-3-(3,4-dihydro-1H-isoquinolin-2-yl)-2-hydroxy-propyl]quinazoline-2,4-dione] | <0.014 μMolar |  | 2940 nM
2 | O=c1c2ccccc2n(CC(F)F)c(=O)n1C[C@H](O)CN1CCc2ccccc2C1 [Compound 79, 1-(2,2-difluoroethyl)-3-[(2R)-3-(3,4-dihydro-1H-isoquinolin-2-yl)-2-hydroxy-propyl]quinazoline-2,4-dione] |  | 29 nM | 2850 nM
3 | O=c1c2ccc(-c3cccnc3)cc2n(CC2CC2)c(=O)n1C[C@H](O)CN1CCc2ccccc2C1 [Compound 86, 1-(cyclopropylmethyl)-3-[(2R)-3-(3,4-dihydro-1H-isoquinolin-2-yl)-2-hydroxy-propyl]-7-(3-pyridyl)quinazoline-2,4-dione] |  | 35 nM | 
4 | COCCn1c(=O)n(CC(O)CN2CCc3ccccc3C2)c(=O)c2ccccc21 (stereo not shown) [Compound 65, 3-[3-(3,4-dihydro-1H-isoquinolin-2-yl)-2-hydroxy-propyl]-1-(2-methoxyethyl)quinazoline-2,4-dione] |  | 518 nM | 
5 | O=c1[nH]c2cc(Br)ccc2c(=O)n1C[C@H](O)CN1CCc2ccccc2C1 [Compound 75, 7-bromo-3-[(2R)-3-(3,4-dihydro-1H-isoquinolin-2-yl)-2-hydroxy-propyl]-1H-quinazoline-2,4-dione] |  | 24 nM | 
6 | CC(C)Cn1c(=O)n(C[C@H](O)CN2CCc3ccccc3C2)c(=O)c2cc(Cl)ccc21 [Compound 69, 6-chloro-3-[(2R)-3-(3,4-dihydro-1H-isoquinolin-2-yl)-2-hydroxy-propyl]-1-isobutyl-quinazoline-2,4-dione] |  | 126 nM | 
7 | CC(C)Cn1c(=O)n(C[C@H](O)CN2CCc3ccccc3C2)c(=O)c2cc(Br)ccc21 [Compound 71, 6-bromo-3-[(2R)-3-(3,4-dihydro-1H-isoquinolin-2-yl)-2-hydroxy-propyl]-1-isobutyl-quinazoline-2,4-dione] |  | 159 nM | 
8 | COc1ccc2[nH]c(=O)n(C[C@H](O)CN3CCc4ccccc4C3)c(=O)c2c1 [Compound 81, 3-[(2R)-3-(3,4-dihydro-1H-isoquinolin-2-yl)-2-hydroxy-propyl]-6-methoxy-1H-quinazoline-2,4-dione] |  | 159 nM | 
9 | CC(C)Cn1c(=O)n(C[C@H](O)CN2CCc3ccccc3C2)c(=O)c2cc(F)ccc21 [Compound 72, 3-[(2R)-3-(3,4-dihydro-1H-isoquinolin-2-yl)-2-hydroxy-propyl]-6-fluoro-1-isobutyl-quinazoline-2,4-dione] |  | 70 nM | 
10 | CC(C)Cn1c(=O)n(C[C@H](O)CN2CCc3ccccc3C2)c(=O)c2ccc(Cl)cc21 [Compound 73, 7-chloro-3-[(2R)-3-(3,4-dihydro-1H-isoquinolin-2-yl)-2-hydroxy-propyl]-1-isobutyl-quinazoline-2,4-dione] |  | 14 nM | 
11 | O=c1[nH]c2ccccc2c(=O)n1C[C@H](O)CN1CCc2ccccc2C1 [Compound 64, 3-[(2R)-3-(3,4-dihydro-1H-isoquinolin-2-yl)-2-hydroxy-propyl]-1H-quinazoline-2,4-dione] |  | 360 nM | 
12 | O=c1c2cc(F)ccc2n(CC2CC2)c(=O)n1C[C@H](O)CN1CCc2ccccc2C1 [Compound 77, 1-(cyclopropylmethyl)-3-[(2R)-3-(3,4-dihydro-1H-isoquinolin-2-yl)-2-hydroxy-propyl]-6-fluoro-quinazoline-2,4-dione] |  | 63 nM | 
13 | O=c1c2ccc(Br)cc2n(CC2CC2)c(=O)n1C[C@H](O)CN1CCc2ccccc2C1 [Compound 80, 7-bromo-1-(cyclopropylmethyl)-3-[(2R)-3-(3,4-dihydro-1H-isoquinolin-2-yl)-2-hydroxy-propyl]quinazoline-2,4-dione] |  | 9 nM | 1120 nM
14 | O=c1c2ccc(Cl)cc2n(CC2CC2)c(=O)n1C[C@H](O)CN1CCc2ccccc2C1 [Compound 78, 7-chloro-1-(cyclopropylmethyl)-3-[(2R)-3-(3,4-dihydro-1H-isoquinolin-2-yl)-2-hydroxy-propyl]quinazoline-2,4-dione] |  | 12 nM | 1950 nM

Now from value to molecule, other results behind:

Row | IC50 Values (PRMT5) | IC50 (PRMT5) | SMILES | IC50 (Z-138 cells)
15 |  | 779 nM | N#Cc1ccc(Cn2c(=O)n(CC(O)CN3CCc4ccccc4C3)c(=O)c3ccccc32)cc1 (stereo not shown) [Compound 100, 4-[[3-[3-(3,4-dihydro-1H-isoquinolin-2-yl)-2-hydroxy-propyl]-2,4-dioxo-quinazolin-1-yl]methyl]benzonitrile] | 
16 |  | 4490 nM | CC(C)Cn1c(=O)n(C[C@@H](O)CN2CCc3ccccc3C2)c(=O)c2ccccc21 [Compound 101, 3-[(2S)-3-(3,4-dihydro-1H-isoquinolin-2-yl)-2-hydroxy-propyl]-1-isobutyl-quinazoline-2,4-dione] | 
17 |  | 43 nM | COc1ccc(-c2ccc3c(=O)n(C[C@H](O)CN4CCc5ccccc5C4)c(=O)n(CC4CC4)c3c2)cn1 [Compound 91, 1-(cyclopropylmethyl)-3-[(2R)-3-(3,4-dihydro-1H-isoquinolin-2-yl)-2-hydroxy-propyl]-7-(6-methoxy-3-pyridyl)quinazoline-2,4-dione] | 1930 nM
18 |  | 903 nM | O=c1c2ccccc2n(CC2CCOCC2)c(=O)n1CC(O)CN1CCc2ccccc2C1 (stereo not shown) [Compound 105, 3-[3-(3,4-dihydro-1H-isoquinolin-2-yl)-2-hydroxy-propyl]-1-(tetrahydropyran-4-ylmethyl)quinazoline-2,4-dione] | 
19 |  | 164 nM | O=c1c2ccccc2n(CC2CC(F)(F)C2)c(=O)n1C[C@H](O)CN1CCc2ccccc2C1 [Compound 95, 1-[(3,3-difluorocyclobutyl)methyl]-3-[(2R)-3-(3,4-dihydro-1H-isoquinolin-2-yl)-2-hydroxy-propyl]quinazoline-2,4-dione] | 
20 |  | 58 nM | COc1ccc2c(c1)c(=O)n(C[C@H](O)CN1CCc3ccccc3C1)c(=O)n2CC1CC1 [Compound 87, 1-(cyclopropylmethyl)-3-[(2R)-3-(3,4-dihydro-1H-isoquinolin-2-yl)-2-hydroxy-propyl]-6-methoxy-quinazoline-2,4-dione] | 
21 |  | 21 nM | Cc1ccc2c(c1)c(=O)n(C[C@H](O)CN1CCc3ccccc3C1)c(=O)n2CC1CC1 [Compound 88, 1-(cyclopropylmethyl)-3-[(2R)-3-(3,4-dihydro-1H-isoquinolin-2-yl)-2-hydroxy-propyl]-6-methyl-quinazoline-2,4-dione] | 
22 |  | 41 nM | O=c1c2c(F)cccc2n(CC2CC2)c(=O)n1C[C@H](O)CN1CCc2ccccc2C1 [Compound 89, 1-(cyclopropylmethyl)-3-[(2R)-3-(3,4-dihydro-1H-isoquinolin-2-yl)-2-hydroxy-propyl]-5-fluoro-quinazoline-2,4-dione] | 
23 |  | 178 nM | CC(C)Cn1c(=O)n(CC(O)CN2CCc3ccccc3C2)c(=O)c2ccccc21 (stereo not shown) [Compound 98, 3-[3-(3,4-dihydro-1H-isoquinolin-2-yl)-2-hydroxy-propyl]-1-isobutyl-quinazoline-2,4-dione] | 
24 |  | 45 nM | O=c1c2cc(-c3ccc(F)cc3)ccc2n(CC(F)F)c(=O)n1C[C@H](O)CN1CCc2ccccc2C1 [Compound 94, 1-(2,2-difluoroethyl)-3-[(2R)-3-(3,4-dihydro-1H-isoquinolin-2-yl)-2-hydroxy-propyl]-6-(4-fluorophenyl)quinazoline-2,4-dione] | 10000 nM
25 |  | 36 nM | O=c1c2ccccc2n(CC2CCC2)c(=O)n1C[C@H](O)CN1CCc2ccccc2C1 [Compound 92, 1-(cyclobutylmethyl)-3-[(2R)-3-(3,4-dihydro-1H-isoquinolin-2-yl)-2-hydroxy-propyl]quinazoline-2,4-dione] | 3630 nM
26 |  | 122 nM | O=c1c2ccccc2n(CCCC(F)(F)F)c(=O)n1C[C@H](O)CN1CCc2ccccc2C1 [Compound 93, 3-[(2R)-3-(3,4-dihydro-1H-isoquinolin-2-yl)-2-hydroxy-propyl]-1-(4,4,4-trifluorobutyl)quinazoline-2,4-dione] | 
27 |  | 121 nM | O=c1c2ccccc2n(CC2CC2(F)F)c(=O)n1C[C@H](O)CN1CCc2ccccc2C1 (stereo partly drawn) [Compound 90, 1-[(2,2-difluorocyclopropyl)methyl]-3-[(2R)-3-(3,4-dihydro-1H-isoquinolin-2-yl)-2-hydroxy-propyl]quinazoline-2,4-dione] | 
